Measured values taken from patent US7018623B2, “B complex vitamin compositions that protect against cellular damage caused by ultraviolet light” (priority 2001, dated 2006).

How the values were obtained:
[1] = system: human volunteers exposed to direct sunlight; assay: Oral self-administration of B vitamins by human subjects, sunburning on continuous exposure to sunlight; type: in vivo; conditions: for expected sunburning effects of continuous sun exposure: one patient, a year and a half, oral, B12 300–500 mcg/day, folic acid 2–5 mg/day, or both with niacinamide 200–500 mg/day
Procedure: 1. Over the period of four weeks a white middle aged couple in their forties on holiday in Mexico self administered 400–600 mcg vitamin B12/day in the form of 100 mcg tablets.
2. Over the period of a year and a half a […] self-administered vitamin B12 alone at 300 mcg to 500 mcg/day in the form of 100 mcg tablets, folic acid alone in the form of folic acid alone at 2 mg–5 mg/day in the form of 1 mg tablets or a combination of both vitamins in the same dose range taken with niacinamide 200 mg–500 mg/day in the form of 100 mg tablets. […] Normal burning rates returned within 24 hrs of the cessation of oral administration of the various formulations.
3. […] The published UVB index gave an expected time of continuous exposure to sunlight in the Edmonton AB area of 45 minutes. The maximum SPF (skin protection factor) was computed to be approximately 330/45=7.3.
5. These experiments have been repeated with approximately twenty human volunteers of various skin types ranging in age from 25 to 35 years. Most were female, one was a qualified physician, and many were qualified nurses or other healthcare professionals trained in observing symptoms of skin burning. Over the past year, a variety of different combinations of the three B complex vitamins were tested by exposure of these individuals to direct sunlight in locales such as Alberta Canada, Kelowna Canada, Mexico, Montego Bay Jamaica, San Diego Calif., Phoenix Ariz., Los Angeles Calif., and Honolulu, Hi. either in the course of their work or on vacation. The subjects had various skin types and were of many different nationalities.

[2] = human, topical application; cited from earlier work

## Nc1nc2ncc(CNc3ccc(C(=O)N[C@@H](CCC(=O)O)C(=O)O)cc3)nc2c(=O)[nH]1 [folic acid]
[1]
  expected sunburning effects of continuous sun exposure: some amelioration of the expected sunburning effects

## COc1ccc(C(=O)c2ccccc2)c(O)c1 [oxybenzone]
[2]
  systemic absorption and urinary excretion after application to the skin: absorbed systemically and excreted in human urine soon after application to the skin

## vitamin B12
[1]; 400–600 mcg/day oral, four weeks, couple in Mexico, versus past experience and versus not taking the supplement
  rate of sunburning when exposed continuously to sunlight: significant reduction in the rate of sunburning
[1]
  expected sunburning effects of continuous sun exposure: some amelioration of the expected sunburning effects
